Assay results: publication PMC13224050, “Synthesis and characterization of a novel phosphatidylinositol 5-phosphate (PI(5)P) photoaffinity probe” (RSC Chemical Biology, 2026)

Key:
[1] = target: T1, hUHRF1 (Homo sapiens, UniProt Q96T88); experiment: microscale thermophoresis; format: binding
T1 construct: gene UHRF1; purified recombinant, bacterially expressed; domains UBL, TTD, PHD, SRA, RING
T1 sequence (Q96T88 1-793): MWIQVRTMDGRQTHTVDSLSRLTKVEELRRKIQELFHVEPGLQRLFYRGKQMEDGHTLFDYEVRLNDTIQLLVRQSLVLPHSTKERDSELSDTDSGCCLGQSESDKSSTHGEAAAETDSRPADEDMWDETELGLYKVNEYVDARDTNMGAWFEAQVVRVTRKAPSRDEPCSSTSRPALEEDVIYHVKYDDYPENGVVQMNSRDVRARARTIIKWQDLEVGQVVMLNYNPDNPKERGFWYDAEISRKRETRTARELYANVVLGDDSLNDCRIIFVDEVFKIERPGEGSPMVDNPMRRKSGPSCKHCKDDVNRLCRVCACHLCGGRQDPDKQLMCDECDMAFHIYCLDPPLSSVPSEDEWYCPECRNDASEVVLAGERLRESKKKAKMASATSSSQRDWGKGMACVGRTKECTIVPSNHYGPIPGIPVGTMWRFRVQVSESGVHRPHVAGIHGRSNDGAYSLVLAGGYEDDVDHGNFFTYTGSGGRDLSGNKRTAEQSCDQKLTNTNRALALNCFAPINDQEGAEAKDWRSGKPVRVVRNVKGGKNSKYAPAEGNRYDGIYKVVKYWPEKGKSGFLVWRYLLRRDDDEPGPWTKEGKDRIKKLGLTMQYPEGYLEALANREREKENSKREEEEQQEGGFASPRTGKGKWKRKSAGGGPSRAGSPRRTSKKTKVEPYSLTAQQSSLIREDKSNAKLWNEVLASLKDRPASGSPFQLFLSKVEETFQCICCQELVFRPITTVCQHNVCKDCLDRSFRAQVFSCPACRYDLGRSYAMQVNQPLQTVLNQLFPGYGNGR

[2] = target: T2, hTAF3 (Homo sapiens, UniProt Q5VWG9); experiment: photo-crosslinking with TAMRA click SDS-PAGE; format: binding; conditions: covalent; 365 nm 30 min
T2 construct: gene TAF3; purified recombinant, bacterially expressed; abstract prints TAF1 instead
T2 sequence (Q5VWG9 1-929): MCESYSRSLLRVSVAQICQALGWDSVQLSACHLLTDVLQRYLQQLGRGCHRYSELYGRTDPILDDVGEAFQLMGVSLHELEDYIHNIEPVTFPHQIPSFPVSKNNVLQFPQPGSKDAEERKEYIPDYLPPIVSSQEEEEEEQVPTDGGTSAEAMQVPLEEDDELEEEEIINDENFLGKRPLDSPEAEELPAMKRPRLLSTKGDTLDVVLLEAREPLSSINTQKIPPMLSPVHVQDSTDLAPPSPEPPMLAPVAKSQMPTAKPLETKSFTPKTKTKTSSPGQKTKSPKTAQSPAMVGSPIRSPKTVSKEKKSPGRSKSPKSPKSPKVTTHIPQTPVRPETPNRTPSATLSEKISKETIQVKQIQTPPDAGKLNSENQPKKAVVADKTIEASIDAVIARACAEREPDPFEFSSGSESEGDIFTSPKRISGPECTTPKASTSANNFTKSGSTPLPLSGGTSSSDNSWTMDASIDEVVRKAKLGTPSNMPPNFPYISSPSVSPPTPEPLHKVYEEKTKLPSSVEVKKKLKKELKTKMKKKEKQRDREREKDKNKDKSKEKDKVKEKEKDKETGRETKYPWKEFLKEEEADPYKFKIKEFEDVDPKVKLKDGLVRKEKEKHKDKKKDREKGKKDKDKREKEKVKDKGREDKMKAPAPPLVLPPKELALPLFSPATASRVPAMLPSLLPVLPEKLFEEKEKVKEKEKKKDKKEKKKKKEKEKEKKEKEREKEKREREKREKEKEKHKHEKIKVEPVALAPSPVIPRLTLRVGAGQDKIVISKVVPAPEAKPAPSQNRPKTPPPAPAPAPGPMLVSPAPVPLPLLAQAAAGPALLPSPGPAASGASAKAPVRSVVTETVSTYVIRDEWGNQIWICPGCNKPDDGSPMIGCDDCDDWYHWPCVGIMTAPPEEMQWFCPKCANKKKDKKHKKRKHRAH

SMILES	Kd [1]	photo-crosslinking with TAMRA click SDS-PAGE [2]
CCCCCCCCCCCCCCCC(=O)OC[C@H](COP(=O)(O)O[C@H]1[C@H](O)[C@@H](OP(=O)(O)O)[C@H](O)[C@@H](O)[C@H]1O)OC(=O)CCCCCCCCCCCCCCC [compound 1, di-C16 : 0 PI(5)P]	~8.6 µM	–
C#CCCCCCCCCCCC1(CCC(=O)O[C@H](COC(=O)CCCCCCCCCCCCCCC)COP(=O)(O)O[C@H]2[C@H](O)[C@@H](OP(=O)(O)O)[C@H](O)[C@@H](O)[C@H]2O)N=N1 [compound 9, PI(5)P diazirine probe]	–	confirming that the diazirine probe bound to bacterially expressed recombinant hUHRF1 and hTAF3
